# In patent publication US20230021483A1, “[…] […] METHOD AND CLASSIFICATION OF PHARMACEUTICAL COMPONENTS BY USING TRANSCRIPTOMES” (National Institutes of Biomedical Innovation, Health and …, priority 2016, published 2023):
# Values joined by “and” are separate entries in the source; they are usually repeats but may differ in a detail not shown here. Equal entries are not always repeated.
# Tested on: preferentially upregulated genes in LV, SP, LN
# Assay: Z-score-based differential gene expression analysis (adjuvant group- or adjuvant-associated genes, 40 module mapping, TargetMine annotation)
# Assay type: in vivo, C57BL/6 mice
# Parameters: key to z sum, 1458589_at ---: sum of the per-gene fold-change z-scores of the triplicate samples
# Conditions: ID
# Summary of the method: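 Gene groups for each organ were built from combined z-score cutoffs across adjuvants, ranging from z>1 to z>3. Scores came from fold changes standardized per gene over the whole organ data set, with the three replicate z-scores added per adjuvant; sums above 3 marked preferential expression.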
compound,measurement,setting,value
"Nc1nc2c(ncn2[C@@H]2O[C@@H]3COP(=O)(O)O[C@H]4[C@@H](O)[C@H](n5cnc6c(=O)[nH]c(N)nc65)O[C@@H]4COP(=O)(O)O[C@H]3[C@H]2O)c(=O)[nH]1 [cdiGMP, Cyclic diguanylate monophosphate]","z sum, 1428027_at LOC100653389","LN, Modules 26",3.943
same,"z sum, 1419721_at Niacr1","LN, Modules 27",3.925
same,"z sum, 1418424_at Tnfaip6","LN, Modules 29",3.961
same,"z sum, 1419534_at Olr1","LN, Modules 29",3.953
same,"z sum, 1421457_a_at Samsn1","LN, Modules 29",3.927
same,"z sum, 1422305_at Ifnb1","LN, Modules 29",3.959
same,"z sum, 1423028_at Ifna2","LN, Modules 29",3.966
same,"z sum, 1425837_a_at Ccrn4l","LN, Modules 29",3.961
same,"z sum, 1436387_at C330006P03Rik///Homer1","LN, Modules 29",3.967
same,"z sum, 1439349_at Sbno2","LN, Modules 29",3.94
same,"z sum, 1444010_at Eif4e","LN, Modules 29",3.936
same,"z sum, 1448325_at Ppp1r15a","LN, Modules 29",3.957
same,"z sum, 1449311_at Bach1","LN, Modules 29",3.924
same,"z sum, 1450297_at Il6","LN, Modules 29",3.956
same,"z sum, 1455197_at Rnd1","LN, Modules 29",3.976
same,"z sum, 1455899_x_at Socs3","LN, Modules 29",3.93
same,"z sum, 1417252_at Ptgs2","LN, Modules 34",3.953
same,"z sum, 1417263_at Ptgs2","LN, Modules 34",3.945
same,"z sum, 1419132_at Tfr2","LN, Modules 34",3.95
same,"z sum, 1421473_at Il1a","LN, Modules 34",3.96
same,"z sum, 1439981_at Tespa1","LN, Modules 35",3.95
same,"z sum, 1441843_s_at 5230400M03Rik","LN, Modules 35",3.967
same,"z sum, 1442556_at ---","LN, Modules 35",3.981
same,"z sum, 1443414_at C78513","LN, Modules 35",3.922
same,"z sum, 1444598_at ---","LN, Modules 35",3.93
same,"z sum, 1445534_at ---","LN, Modules 35",3.938
same,"z sum, 1446245_at ---","LN, Modules 35",3.919
same,"z sum, 1457944_at ---","LN, Modules 35",3.94
same,"z sum, 1458376_at B930025B16Rik","LN, Modules 35",3.963
same,"z sum, 1459144_at ---","LN, Modules 35",3.966
same,"z sum, 1425687_at Cflar","LN, Modules 36",3.968
same,"z sum, 1427736_a_at Ccrl2","LN, Modules 36",3.958
same,"z sum, 1449169_at Has2","LN, Modules 36",3.922
same,"z sum, 1453636_at Pcgf5","LN, Modules 36",3.972
same,"z sum, 1457888_at ---","LN, Modules 36",3.925
same,"z sum, 1419508_at Ripk1","LN, Modules 37",3.938
same,"z sum, 1421578_at Ccl4","LN, Modules 37",3.99
same,"z sum, 1421679_a_at Cdkn1a","LN, Modules 37",3.98
same,"z sum, 1424638_at Cdkn1a","LN, Modules 37",3.93
same,"z sum, 1433508_at Klf6","LN, Modules 37",3.947
same,"z sum, 1434350_at Csrnp1","LN, Modules 37",3.966
same,"z sum, 1439680_at Tnfsf10","LN, Modules 37",3.927
same,"z sum, 1448724_at Cish","LN, Modules 37",3.94
same,"z sum, 1451340_at Arid5a","LN, Modules 37",3.953
same,"z sum, 1453851_a_at Gadd45g","LN, Modules 37",3.961
same,"z sum, 1457404_at Nfkbiz","LN, Modules 37",3.989
same,"z sum, 1458589_at ---","LN, Modules 37",3.945
same,"z sum, 1422054_a_at 5kil","LN, Modules 40",3.92
same,"z sum, 1428735_at Cd69","LN, Modules 40",3.941
same,"z-score of fold change, 1428027_at LOC100653389","LN, samples x1-x3, Modules 26",1.302 and 1.534 and 1.106
same,"z-score of fold change, 1419721_at Niacr1","LN, samples x1-x3, Modules 27",1.493 and 1.403 and 1.03
same,"z-score of fold change, 1418424_at Tnfaip6","LN, samples x1-x3, Modules 29",1.141 and 1.631 and 1.189
same,"z-score of fold change, 1419534_at Olr1","LN, samples x1-x3, Modules 29",1.484 and 1.094 and 1.375
same,"z-score of fold change, 1421457_a_at Samsn1","LN, samples x1-x3, Modules 29",1.437 and 1.192 and 1.298
same,"z-score of fold change, 1422305_at Ifnb1","LN, samples x1-x3, Modules 29",0.997 and 1.431 and 1.532
same,"z-score of fold change, 1423028_at Ifna2","LN, samples x1-x3, Modules 29",1.076 and 1.31 and 1.58
same,"z-score of fold change, 1425837_a_at Ccrn4l","LN, samples x1-x3, Modules 29",1.34 and 1.091 and 1.529
same,"z-score of fold change, 1436387_at C330006P03Rik///Homer1","LN, samples x1-x3, Modules 29",1.372 and 1.437 and 1.158
same,"z-score of fold change, 1439349_at Sbno2","LN, samples x1-x3, Modules 29",1.367 and 1.407 and 1.166
same,"z-score of fold change, 1444010_at Eif4e","LN, samples x1-x3, Modules 29",1.659 and 1.049 and 1.227
same,"z-score of fold change, 1448325_at Ppp1r15a","LN, samples x1-x3, Modules 29",1.314 and 1.203 and 1.441
same,"z-score of fold change, 1449311_at Bach1","LN, samples x1-x3, Modules 29",1.178 and 1.558 and 1.189
same,"z-score of fold change, 1450297_at Il6","LN, samples x1-x3, Modules 29",1.437 and 0.989 and 1.53
same,"z-score of fold change, 1455197_at Rnd1","LN, samples x1-x3, Modules 29",1.54 and 1.27 and 1.166
same,"z-score of fold change, 1455899_x_at Socs3","LN, samples x1-x3, Modules 29",1.206 and 1.544 and 1.18
same,"z-score of fold change, 1417252_at Ptgs2","LN, samples x1-x3, Modules 34",1.507 and 1.214 and 1.232
same,"z-score of fold change, 1417263_at Ptgs2","LN, samples x1-x3, Modules 34",1.51 and 0.965 and 1.47
same,"z-score of fold change, 1419132_at Tlr2","LN, samples x1-x3, Modules 34",1.576 and 1.128 and 1.246
same,"z-score of fold change, 1421473_at Il1a","LN, samples x1-x3, Modules 34",1.525 and 1.178 and 1.257
same,"z-score of fold change, 1439981_at Tespa1","LN, samples x1-x3, Modules 35",1.343 and 1.427 and 1.18
same,"z-score of fold change, 1441843_s_at 5230400M03Rik","LN, samples x1-x3, Modules 35",1.442 and 1.354 and 1.171
same,"z-score of fold change, 1442556_at ---","LN, samples x1-x3, Modules 35",1.421 and 1.315 and 1.245
same,"z-score of fold change, 1443414_at C78513","LN, samples x1-x3, Modules 35",1.402 and 0.963 and 1.557
same,"z-score of fold change, 1444598_at ---","LN, samples x1-x3, Modules 35",1.559 and 1.318 and 1.053
same,"z-score of fold change, 1445534_at ---","LN, samples x1-x3, Modules 35",1.345 and 1.515 and 1.078
same,"z-score of fold change, 1446245_at ---","LN, samples x1-x3, Modules 35",1.239 and 1.22 and 1.46
same,"z-score of fold change, 1457944_at ---","LN, samples x1-x3, Modules 35",1.366 and 1.428 and 1.146
same,"z-score of fold change, 1458376_at B930025B16Rik","LN, samples x1-x3, Modules 35",1.188 and 1.502 and 1.273
same,"z-score of fold change, 1459144_at ---","LN, samples x1-x3, Modules 35",1.275 and 1.199 and 1.493
same,"z-score of fold change, 1425687_at Cflar","LN, samples x1-x3, Modules 36",1.199 and 1.3 and 1.469
same,"z-score of fold change, 1427736_a_at Ccrl2","LN, samples x1-x3, Modules 36",1.328 and 1.075 and 1.554
same,"z-score of fold change, 1449169_at Has2","LN, samples x1-x3, Modules 36",1.306 and 1.158 and 1.458
same,"z-score of fold change, 1453636_at Pcgf5","LN, samples x1-x3, Modules 36",1.332 and 1.143 and 1.496
same,"z-score of fold change, 1457888_at ---","LN, samples x1-x3, Modules 36",1.466 and 1.08 and 1.38
same,"z-score of fold change, 1419508_at Ripk1","LN, samples x1-x3, Modules 37",1.035 and 1.437 and 1.467
same,"z-score of fold change, 1421578_at Ccl4","LN, samples x1-x3, Modules 37",1.402 and 1.22 and 1.368
same,"z-score of fold change, 1421679_a_at Cdkn1a","LN, samples x1-x3, Modules 37",1.429 and 1.421 and 1.13
same,"z-score of fold change, 1424638_at Cdkn1a","LN, samples x1-x3, Modules 37",1.624 and 1.232 and 1.074
same,"z-score of fold change, 1433508_at Klf6","LN, samples x1-x3, Modules 37",1.271 and 1.413 and 1.263
same,"z-score of fold change, 1434350_at Csrnp1","LN, samples x1-x3, Modules 37",1.353 and 1.305 and 1.308
same,"z-score of fold change, 1439680_at Tnfsf10","LN, samples x1-x3, Modules 37",1.169 and 1.36 and 1.399
same,"z-score of fold change, 1448724_at Cish","LN, samples x1-x3, Modules 37",1.476 and 1.357 and 1.106
same,"z-score of fold change, 1451340_at Arid5a","LN, samples x1-x3, Modules 37",1.5 and 1.292 and 1.161
same,"z-score of fold change, 1453851_a_at Gadd45g","LN, samples x1-x3, Modules 37",1.368 and 1.383 and 1.21
same,"z-score of fold change, 1457404_at Nfkbiz","LN, samples x1-x3, Modules 37",1.371 and 1.232 and 1.386
same,"z-score of fold change, 1458589_at ---","LN, samples x1-x3, Modules 37",1.137 and 1.339 and 1.469
same,"z-score of fold change, 1422054_a_at 5kil","LN, samples x1-x3, Modules 40",1.491 and 1.218 and 1.211
same,"z-score of fold change, 1428735_at Cd69","LN, samples x1-x3, Modules 40",1.22 and 1.344 and 1.378
same,"Adar 1425405_a_at (Group G1, Modules 20)","LV, sample x1",1.58
same,"Adar 1434268_at (Group G1, Modules 20)","LV, sample x1",1.7
same,"Ddx58 1436562_at (Group G1, Modules 20)","LV, sample x1",0.94
same,"Ddx58 1456890_at (Group G1, Modules 20)","LV, sample x1",1.2
same,"Eif2ak2 1422005_at (Group G1, Modules 20)","LV, sample x1",1.02
same,"G3bp2 1421323_a_at (Group G1, Modules 20)","LV, sample x1",1.74
same,"Gm9706///Isg15 1431591_s_at (Group G1, Modules 20)","LV, sample x1",1.01
same,"H2-T10///H2-T22///H2-T9 1449875_s_at (Group G1, Modules 20)","LV, sample x1",1.07
same,"Ifih1 1426276_at (Group G1, Modules 20)","LV, sample x1",0.89
same,"Ifit1 1450783_at (Group G1, Modules 20)","LV, sample x1",2.21
same,"Ifit3 1449025_at (Group G1, Modules 20)","LV, sample x1",1.7
same,"Irf7 1417244_a_at (Group G1, Modules 20)","LV, sample x1",0.85
same,"Irgm1 1418825_at (Group G1, Modules 20)","LV, sample x1",1.33
same,"Mndal 1426906_at (Group G1, Modules 20)","LV, sample x1",1.77
same,"Pml 1448757_at (Group G1, Modules 20)","LV, sample x1",1.41
same,"Pml 1456103_at (Group G1, Modules 20)","LV, sample x1",1.31
same,"Rnf213 1455500_at (Group G1, Modules 20)","LV, sample x1",2.07
same,"Rsad2 1436058_at (Group G1, Modules 20)","LV, sample x1",2.39
same,"Shisa5 1423986_a_at (Group G1, Modules 20)","LV, sample x1",0.72
same,"Shisa5 1437503_a_at (Group G1, Modules 20)","LV, sample x1",1.05
